Measurements from patent US20120197004A1, “NOVEL ANTI-MICROBIAL PEPTIDOMIMETIC COMPOUNDS AND METHODS TO CALCULATE ANTI-MICROBIAL ACTIVITY” (priority 2006, published 2012).
Converted amounts (≈) assume the structure as drawn. Like-named read-outs stand apart in the source and are kept apart here. Where a SMILES comes first, the peptide text is derived from it. [ ]: non-standard residue; d: D form. The star is where a group is joined. ξ: configuration not given here. Biotin = O=C1N[C@H]2[C@H](CS[C@H]2CCCCC(=O)*)N1; Oic = O=C(O)[C@@H]1C[C@@H]2CCCC[C@@H]2N1; Tic = O=C(O)[C@@H]1Cc2ccccc2CN1; ξTic = O=C(O)C1Cc2ccccc2CN1; ξOic = O=C(O)C1CC2CCCCC2N1; Ahx = NCCCCCC(=O)O

Assays:
[1] = tested on: Salmonella typhimurium (ATCC 13311); conditions: for MIC Salmonella typhimurium: ATCC 13311; for p(MIC) Salmonella typhimurium: -log(MIC)
[2] = tested on: Mycobacterium ranae (ATCC 110)
[3] = tested on: Bacillus subtillis (ATCC 43223); conditions: for MIC Bacillus Subtillis: ATCC 43223; for p(MIC) Bacillus Subtillis: -log(MIC)
[4] = tested on: Staphylococcus aureus Methicillin/Gentamicin/Tetracycline Resistant (ATCC 33592); conditions: for p(MIC) Staphylococcus aureus ME/GM/TC resistant: -log(MIC); for MIC Staphylococcus aureus ME/GM/TC resistant: Minimal Inhibitory Concentration, tested at 100-0.1 in 1% DMSO; for Minimum Inhibitory Concentration Staphylococcus aureus ME/GM/TC resistant: in vitro MIC, tested at 100, 30, 10, 3, 1, 0.3 and 0.1 μM in 1% DMSO; for Actual Bioactivity: p(MIC) used in Staphylococcus aureus QSAR model
in vitro [5] = conditions: mouse, microsomes, pH 7.4
in vitro [6] = conditions: dog, microsomes, pH 7.4
in vitro [7] = conditions: monkey, microsomes, pH 7.4
in vitro [8] = conditions: rat, microsomes, pH 7.4

SMILES	MIC Salmonella typhimurium [1]	% hemolysis 100/25 μM (first value) (red blood cells)	% hemolysis 100/25 μM (second value) (red blood cells)	MIC Mycobacterium ranae ([2]; ATCC 110)	MIC Bacillus Subtillis [3]	p(MIC) Salmonella typhimurium [1]	p(MIC) Staphylococcus aureus ME/GM/TC resistant [4]	MIC Staphylococcus aureus ME/GM/TC resistant [4]	Minimum Inhibitory Concentration Staphylococcus aureus ME/GM/TC resistant [4]	Actual Bioactivity [4]	Actual Bioactivity [2]	Minimum Inhibitory Concentration Mycobacterium ranae ([2]; ATCC 110)	p(MIC) Bacillus Subtillis [3]	also measured
CC(=O)NCC(=O)N[C@@H](Cc1ccccc1)C(=O)N1Cc2ccccc2CC1C(=O)NCC(=O)NCC(=O)N[C@@H](CCCCN)C(=O)N1Cc2ccccc2CC1C(=O)NCC(=O)NCC(=O)N[C@@H](Cc1ccccc1)C(=O)N1Cc2ccccc2CC1C(=O)NCC(=O)NCC(=O)N[C@@H](CCCCN)C(=O)N1Cc2ccccc2CC1C(=O)N[C@@H](CCCCN)C(=O)N[C@@H](CCCCN)C(=O)N[C@@H](CCCCN)C(=O)N[C@@H](CCCCN)C(N)=O (stereo partly shown) [FKAB-1Gg1, Ac-GF-Tic-G-GK-Tic-G-GF-Tic-G-GK-Tic-KKKK-CONH2] (Ac-GF[ξTic]GGK[ξTic]GGF[ξTic]GGK[ξTic]KKKK-NH2)	100 µM (≈ 216 µg/mL)	5.70%/	3.80%	30.00 µM (≈ 64.8 µg/mL)	10.00 µM (≈ 21.6 µg/mL)	–	–	–	–	–	–	–	–	–
CC(=O)NCCCCCC(=O)N[C@@H](Cc1ccccc1)C(=O)N1Cc2ccccc2C[C@H]1C(=O)N1[C@H](C(=O)NCCCCCC(=O)N[C@@H](CCCCN)C(=O)N2Cc3ccccc3C[C@H]2C(=O)N2[C@H](C(=O)NCCCCCC(=O)N[C@@H](Cc3ccccc3)C(=O)N3Cc4ccccc4C[C@H]3C(=O)N3[C@H](C(=O)NCCCCCC(=O)N[C@@H](CCCCN)C(=O)N4Cc5ccccc5C[C@H]4C(=O)N[C@@H](CCCCN)C(=O)N[C@@H](CCCCN)C(=O)N[C@@H](CCCCN)C(=O)N[C@@H](CCCCN)C(N)=O)C[C@@H]4CCCC[C@@H]43)C[C@@H]3CCCC[C@@H]32)C[C@@H]2CCCC[C@@H]21 [FKAB-1Gd2, Ac-Ahx-F-Tic-Oic-Ahx-K-Tic-Oic-Ahx-F-Tic-Oic-Ahx-K-Tic-KKKK-CONH2] (Ac-[Ahx]F[Tic][Oic][Ahx]K[Tic][Oic][Ahx]F[Tic][Oic][Ahx]K[Tic]KKKK-NH2)	10 µM (≈ 26.7 µg/mL)	44.7%/	26.6%	3.00 µM (≈ 8 µg/mL)	1.00 µM (≈ 2.67 µg/mL)	5.00	5.00	10.00 µM (≈ 26.7 µg/mL)	10 µM	5.000	5.520	3 µM	6.00	–
CC(=O)N[C@@H](Cc1ccccc1)C(=O)N1Cc2ccccc2C[C@H]1C(=O)N1[C@H](C(=O)N[C@@H](CCCCN)C(=O)N2Cc3ccccc3C[C@H]2C(=O)N2[C@H](C(=O)N[C@@H](Cc3ccccc3)C(=O)N3Cc4ccccc4C[C@H]3C(=O)N3[C@H](C(=O)N[C@@H](CCCCN)C(=O)N4Cc5ccccc5C[C@H]4C(=O)N[C@@H](CCCCN)C(=O)N[C@@H](CCCCN)C(=O)N[C@@H](CCCCN)C(=O)N[C@@H](CCCCN)C(=O)N[C@@H](CCCCN)C(=O)N[C@@H](CCCCN)C(N)=O)C[C@@H]4CCCC[C@@H]43)C[C@@H]3CCCC[C@@H]32)C[C@@H]2CCCC[C@@H]21 [FKAB-1Gc1, Ac-F-Tic-Oic-K-Tic-Oic-F-Tic-Oic-K-Tic-KKKKKK-CONH2] (Ac-F[Tic][Oic]K[Tic][Oic]F[Tic][Oic]K[Tic]KKKKKK-NH2)	10 µM (≈ 24.7 µg/mL)	41.3%/	33.5%	3.00 µM (≈ 7.41 µg/mL)	1.00 µM (≈ 2.47 µg/mL)	5.00	5.52	3.00 µM (≈ 7.41 µg/mL)	3 µM	5.520	5.520	–	6.00	SA Activity ([4]; Staphylococcus aureus (SA), Table 30): 3; MR Activity [2]: 3 µM; Minimum Inhibitory Concentration Mycobacterium ranae [2]: 3 µM
NCCCC[C@H](NC(=O)[C@H](CCCCN)NC(=O)[C@H](CCCCN)NC(=O)[C@H](CCCCN)NC(=O)C1Cc2ccccc2CN1C(=O)[C@H](CCCCN)NC(=O)CNC(=O)C1CC2CCCCC2N1C(=O)C1Cc2ccccc2CN1C(=O)[C@H](Cc1ccccc1)NC(=O)CNC(=O)C1CC2CCCCC2N1C(=O)C1Cc2ccccc2CN1C(=O)[C@H](CCCCN)NC(=O)CNC(=O)C1CC2CCCCC2N1C(=O)C1Cc2ccccc2CN1C(=O)[C@H](Cc1ccccc1)NC(=O)CNC(=O)CCCC[C@@H]1SC[C@@H]2NC(=O)N[C@@H]21)C(N)=O (stereo partly drawn) [FKAB-1Gl, Biotin-GF-Tic-Oic-GK-Tic-Oic-GF-Tic-Oic-GK-Tic-KKKK-CONH2] (Biotin-GF[ξTic][ξOic]GK[ξTic][ξOic]GF[ξTic][ξOic]GK[ξTic]KKKK-NH2)	–	–	–	–	–	–	–	–	3 µM	–	–	10 µM	–	remaining at 0.25 h, 1 μM (in vitro [5]): 96%; remaining at 0.5 h, 1 μM (in vitro [5]): 87%; remaining at 1 h, 1 μM (in vitro [5]): 78%; remaining at 0.5 h, 1 μM (in vitro [6]): 84%; remaining at 1 h, 1 μM (in vitro [6]): 80%; remaining at 0.25 h, 1 μM (in vitro [7]): 80%; remaining at 0.5 h, 1 μM (in vitro [7]): 77%; remaining at 1 h, 1 μM (in vitro [7]): 77%; remaining at 0.25 h, 1 μM (in vitro [8]): 73%; remaining at 0.5 h, 1 μM (in vitro [8]): 83%; remaining at 1 h, 1 μM (in vitro [8]): 105%
